For this assay, the target named is 5-hydroxytryptamine receptor 7 (Homo sapiens, UniProt P34969). Kind of assay: Displacement of [3H]LSD from human 5HT7 receptor expressed in CHO cells. Type of assay: cell-based.

The values that follow come from ChEMBL document CHEMBL1159364, “Inhibition of [3H]-LSD binding to 5-HT7 receptors by flavonoids from Scutellaria lateriflora” (J Nat Prod, 2003).

5-hydroxytryptamine receptor 7, sequence (P34969 whole entry): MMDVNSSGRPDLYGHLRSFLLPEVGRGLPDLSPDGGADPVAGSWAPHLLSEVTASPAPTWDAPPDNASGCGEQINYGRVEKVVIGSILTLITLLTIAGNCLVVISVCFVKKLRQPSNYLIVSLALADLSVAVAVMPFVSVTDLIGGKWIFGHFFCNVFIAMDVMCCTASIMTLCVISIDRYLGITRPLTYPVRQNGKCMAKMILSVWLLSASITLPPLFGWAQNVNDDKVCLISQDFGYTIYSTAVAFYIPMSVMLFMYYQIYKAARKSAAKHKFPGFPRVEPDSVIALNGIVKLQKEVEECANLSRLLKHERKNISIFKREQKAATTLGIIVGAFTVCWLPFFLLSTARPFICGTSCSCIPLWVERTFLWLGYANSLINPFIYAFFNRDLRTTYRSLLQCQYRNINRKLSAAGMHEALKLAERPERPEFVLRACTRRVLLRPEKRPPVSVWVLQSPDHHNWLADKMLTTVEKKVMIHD

`O=C(O)[C@H]1O[C@@H](Oc2cc3oc(-c4ccc(O)cc4)cc(=O)c3c(O)c2O)[C@H](O)[C@@H](O)[C@@H]1O` [SCUTELLARIN] returned an IC50 of 63.4 µM.

Compound `O=C(O)[C@H]1O[C@@H](Oc2cc3oc(-c4ccccc4)cc(=O)c3c(O)c2O)[C@H](O)[C@@H](O)[C@@H]1O` [BAICALIN] had an IC50 of more than 200 µM.

For `O=c1cc(-c2ccccc2)oc2cc(O)c(O)c(O)c12` [BAICALEIN], the IC50 was more than 350 µM.

In the case of `O=C(O)[C@H]1O[C@@H](Oc2cc3oc(-c4ccccc4O)cc(=O)c3c(O)c2O)[C@H](O)[C@@H](O)[C@@H]1O` [IKONNIKOSIDE I], the IC50 turned out to be 135 µM.

Take `COc1c(O)cc(O)c2c(=O)cc(-c3ccccc3)oc12` [WOGONIN]: the IC50 is more than 350 µM.

`O=C1C[C@@H](c2ccccc2)Oc2cc(O[C@@H]3O[C@H](C(=O)O)[C@@H](O)[C@H](O)[C@H]3O)c(O)c(O)c21` [DIHYDROBAICALIN]: the IC50 worked out at 179 µM.
